Test results from patent US20260167622A1, “PAN-KRAS DEGRADING AGENT, AND PREPARATION METHOD THEREFOR AND USE THEREOF” (LEADINGTAC PHARMACEUTICAL (SHAOXING) CO., LTD., priority 2022, published 2026).

Tests used:
[1] = target: T1, KRAS G12V protein in SW620 cells (Homo sapiens, UniProt P01116, G12V); assay: KRAS degradation assay (Western Blot) in SW620 cells; assay type: cell-based; conditions: for DC50: 24 h; for Dmax: SW-620, 24 h
T1 construct: endogenous in cells; host or cells: SW620
In short: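 5×10^5 cells/well; cpd 0.03–3000 nM final, 0.25% DMSO, 24 h, 37 °C/5% CO2. RIPA lysis, 5 µg protein/lane, anti-KRAS WB, β-actin loading ref. DC50/Dmax by nonlinear fit.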

[2] = target: T2, Human KRAS G12D (Homo sapiens, UniProt P01116, G12D); assay: KRAS-G12D/GTP binding assay (HTRF kit); conditions: 25° C., 1 h
T2 construct: purchased PerkinElmer
Description: Test Example 1: KRAS G12D Binding Assay
In this method, the inhibitory effects of the compounds on the binding of KLRAS G12D to GTP were assayed by a homogeneous time-resolved fluorescence (HTRF) technique using a KLRAS-G12D/GTP binding assay kit (PerkinElmer).
The experimental procedures were as follows (refer to the kit instructions for detailed test methods): the compounds of the present disclosure were each firstly dissolved in DMSO at a concentration of 20 mM, and then diluted in an equal gradient with a buffer in the kit, so that the final concentrations of the test compounds in the reaction system were in a range of 0.02-5000 nM, and the final concentration of DMSO was 0.5%. […] After the incubation was completed, the fluorescence intensity of each well was measured at the excitation wavelength of 337 nm and the emission wavelengths of 620 nm and 665 nm with an EnVision microplate reader (PerkinElmer) in the HTRF mode, and Ratio values were calculated using the formula: Ratio=(665 nm/620 nm)×[…]. The inhibition rates of the compounds at each concentration were calculated by comparing the fluorescence intensity ratio with that of the control group. […]

[3] = target: T3, KRAS G12D protein in A427 cells (Homo sapiens, UniProt P01116, G12D); assay: KRAS degradation assay (Western Blot) in A427 cells; assay type: cell-based; conditions: for DC50: 24 h; for Dmax: A-427, 24 h
T3 construct: endogenous in cells; host or cells: A427
Text: (§1) Test Example 5: KRAS G12C, KRAS G12D, KRAS G12V, KRAS G13D, and KRAS WT (Expanded) Degradation Assays
(§2) The degradation effect of the compounds on KRAS was investigated on KRAS G12C mutant human non-small cell lung cancer cell NCI-H358, KRAS G12D mutant human metastatic pancreatic cancer cell AsPc-1, KRAS G12D mutant human lung cancer cell A427, KRAS G12V mutant human colorectal cancer cell SW620, KRAS G12V mutant human lung cancer cell SW900, KRAS G13D mutant human colorectal cancer epithelial cell DLD-1, and KRAS WT human gastric cancer cell MKN-1. The specific procedures were as follows: 0.95 mL of cells were seeded into each well of a 24-well cell culture plate to achieve a cell density of 5×10^5 cells/well; and the cell plate was incubated in an incubator at 37° C. with 5% CO2 overnight. Then 50 μL of the compound solution after dilution was added to each of the wells with the corresponding cells, so that the final concentration of the compound was in a range of 0.03-3000 nM. The final concentration of DMSO was 0.25%. After the compounds were added, the cell plate was incubated in an incubator at 37° C. with 5% CO2 for 24 h. The culture medium in the 24-well cell culture plate was then removed, and the plate was washed twice with 1×PBS (KeyGEN). 120 μL of RIPA (strong) lysis buffer (Beyotime) (supplemented with 1 mM phenylmethylsulfonyl fluoride, a protease inhibitor mixture (Beyotime), and a protease phosphatase inhibitor mixture (Beyotime)) was added to lyse adherent SW900 cells at the bottom of the cell culture plate. After the plate was left to stand on ice for 30 min, the protein lysate in each well was transferred to a 1.5 mL centrifuge tube and centrifuged at 15000 g for 20 min at 4° C. The cell lysate supernatants after centrifugation were cryopreserved in a refrigerator at −80° C. for later use.
(§3) After the samples of the cell lysate supernatants that had been prepared were thawed from the refrigerator at −80° C., the total protein concentrations of the cell lysates were determined using a BCA protein quantification kit (Tiangen). The total protein concentrations of the samples were then adjusted to 0.5 μg/μL with PBS and 5×SDS-PAGE protein loading buffer (Beyotime), and the samples were incubated in a water bath at 100° C. for 15 min. The samples were then incubated in an ice bath for 5 min and centrifuged at 14000 g for 1 min at 4° C., and the supernatants were mixed well as loading samples for the Western Blot assay. The samples were loaded into wells of a 10% precast gel (KeyGEN) with a loading volume of 10 μL (total protein: 5 μg), a sufficient Tris-MOPS-SDS running buffer (Adamas) was added, and then electrophoresis was performed at a constant voltage of 120 V for 55 min. After the electrophoresis, the proteins on the gel were transferred to PVDF membranes at a constant current of 250 mA for 55 min. After the membrane transfer, the PVDF membranes were incubated in 1× Quick Block blocking buffer (Beyotime)at room temperature for 30 min. After the blocking, the PVDF membranes were separately incubated at 4° C. overnight with the KRAS antibody (Abcam) diluted in a ratio of 1:1000 and the β-actin antibody (Abcam) diluted in a ratio of 1:2000 in 5% BSA as the diluent, and then washed with 1×TBST buffer (2.4 g of Tris, 8.8 g of NaCl, 1.5 mL of Tween 20, with pH adjusted to 7.4, with the volume brought to 1 L) 3 times for 10 min/time. The membranes were incubated with a secondary antibody (Abcam) diluted in 5% BSA at room temperature for 2 h, and then washed with 1×TBST buffer 3 times for 10 min/time. Finally, the membranes were incubated with Clarity Western ECL Substrate (BIO-RAD) for 5 min for luminescence and color development, and a ChemiScope 6200 Touch chemiluminescence imaging system (Clinx) was used for color development and protein mapping. Gray value analysis of the protein maps was performed using the chemiluminescence analysis software (Clinx). […]

[4] = target: T4, KRAS G12C protein in NCI-H358 cells (Homo sapiens, UniProt P01116, G12C); assay: KRAS degradation assay (Western Blot) in NCI-H358 cells; assay type: cell-based; conditions: 24 h
T4 construct: endogenous in cells; host or cells: NCI-H358
Text: as §1, §2, §3

T4 sequence (P01116 1-188 isoform P01116-2 G12C): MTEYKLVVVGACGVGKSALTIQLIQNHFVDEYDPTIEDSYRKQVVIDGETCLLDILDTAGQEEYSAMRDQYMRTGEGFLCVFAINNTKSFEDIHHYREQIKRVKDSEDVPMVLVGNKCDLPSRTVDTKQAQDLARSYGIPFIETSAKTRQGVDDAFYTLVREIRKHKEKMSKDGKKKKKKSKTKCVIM
T1 sequence (P01116 1-188 isoform P01116-2 G12V): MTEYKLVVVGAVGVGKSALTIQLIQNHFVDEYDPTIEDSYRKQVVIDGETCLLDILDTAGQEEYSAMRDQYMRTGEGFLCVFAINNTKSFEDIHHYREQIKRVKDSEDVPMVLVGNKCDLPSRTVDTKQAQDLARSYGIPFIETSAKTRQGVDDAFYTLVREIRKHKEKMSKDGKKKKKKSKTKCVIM
T3 sequence (P01116 1-188 isoform P01116-2 G12D): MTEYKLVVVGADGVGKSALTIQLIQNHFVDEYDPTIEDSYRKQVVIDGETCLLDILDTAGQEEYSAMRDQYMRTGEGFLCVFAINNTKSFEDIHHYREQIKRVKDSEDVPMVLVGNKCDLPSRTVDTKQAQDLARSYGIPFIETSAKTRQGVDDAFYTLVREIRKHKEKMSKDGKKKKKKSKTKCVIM
T2 sequence (P01116 1-188 isoform P01116-2 G12D): as above

DC50 [1]	Dmax [1]	IC50 [2]	DC50 [3]	Dmax [3]	DC50 [4]	Dmax [4]	SMILES
0.00267 µM	100%	≤ 0.5 µM	≤ 0.05 µM	80 to 100%	≤ 0.05 µM	80 to 100%	C#Cc1c(F)ccc2cc(O)cc(-c3ncc4c(N5CCC[C@@](C)(O)C5)nc(OCC5(CN6CCN(CC7CCC8(CC7)CCN(C(=O)c7ccc(Cl)c(N9CCC(=O)NC9=O)c7)CC8)CC6)CC5)nc4c3F)c12 [Example 1, (R)-1-(2-chloro-5-(9-((4-((1-(((7-(8-ethynyl-7-fluoro-3-hydroxynaphthalen-1-yl)-8-fluoro-4-(3-hydroxy-3-methylpiperidin-1-yl)pyrido[4,3-d]pyrimidin-2-yl)oxy)methyl)cyclopropyl)methyl)piperazin-1-yl)methyl)-3-azaspiro[5.5]undecane-3-carbonyl)phenyl)dihydropyrimidine-2,4(1H,3H)-dione]
–	–	≤ 0.5 µM	≤ 0.05 µM	80 to 100%	≤ 0.05 µM	80 to 100%	CCc1cccc2cc(O)cc(-c3ncc4c(N5CCC[C@@](C)(O)C5)nc(OCC5(CN6CCN(CC7CCC8(CC7)CCN(C(=O)c7ccc(Cl)c(N9CCC(=O)NC9=O)c7)CC8)CC6)CC5)nc4c3F)c12 [Example 3, (R)-1-(2-chloro-5-(9-((4-((1-(((7-(8-ethyl-3-hydroxynaphthalen-1-yl)-8-fluoro-4-(3-hydroxy-3-methylpiperidin-1-yl)pyrido[4,3-d]pyrimidin-2-yl)oxy)methyl)cyclopropyl)methyl)piperazin-1-yl)methyl)-3-azaspiro[5.5]undecane-3-carbonyl)phenyl)dihydropyrimidine-2,4(1H,3H)-dione]
0.00356 µM	99.1%	–	≤ 0.05 µM	80 to 100%	≤ 0.05 µM	80 to 100%	C#Cc1c(F)ccc2cc(O)cc(-c3ncc4c(N5CCC[C@@](C)(O)C5)nc(OCC5(CN6CCN(CC7CCC8(CC7)CCN(C(=O)c7ccc(C)c(N9CCC(=O)NC9=O)c7)CC8)CC6)CC5)nc4c3F)c12 [Example 6, (R)-1-(5-(9-((4-((1-(((7-(8-ethynyl-7-fluoro-3-hydroxynaphthalen-1-yl)-8-fluoro-4-(3-hydroxy-3-methylpiperidin-1-yl)pyrido[4,3-d]pyrimidin-2-yl)oxy)methyl)cyclopropyl)methyl)piperazin-1-yl)methyl)-3-azaspiro[5.5]undecane-3-carbonyl)-2-methylphenyl)dihydropyrimidine-2,4(1H,3H)-dione]
0.00062 µM	100%	–	≤ 0.05 µM	80 to 100%	≤ 0.05 µM	80 to 100%	C#Cc1c(F)ccc2cc(O)cc(-c3ncc4c(N5CCC[C@@](C)(O)C5)nc(OCC5(CN6CCN(CC7CCC8(CC7)CCN(C(=O)c7ccc(OC)c(N9CCC(=O)NC9=O)c7)CC8)CC6)CC5)nc4c3F)c12 [Example 7, (R)-1-(5-(9-((4-((1-(((7-(8-ethynyl-7-fluoro-3-hydroxynaphthalen-1-yl)-8-fluoro-4-(3-hydroxy-3-methylpiperidin-1-yl)pyrido[4,3-d]pyrimidin-2-yl)oxy)methyl)cyclopropyl)methyl)piperazin-1-yl)methyl)-3-azaspiro[5.5]undecane-3-carbonyl)-2-methoxyphenyl)dihydropyrimidine-2,4(1H,3H)-dione]
